Source: PMC8305101, “Synthesis and Cytotoxicity Evaluation of Spirocyclic Bromotyrosine Clavatadine C Analogs” (Marine Drugs, 2021)
Where two headings read alike, the source gives them in different places.

What was measured:
[1] = test system: human malignant melanoma A-375 cell line; experiment: Cytotoxicity in A-375 melanoma cells (CellTiter-Glo ATP viability); format: cell-based; details: for cytotoxicity at 50 µM / CC50: Homo sapiens; for CC50: read-out: CC50 (µM) in A-375 Cells; for Selectivity Index (SI): ratio of CC50 values between Hs27 fibroblasts and A-375 melanoma cells, SD in parentheses
Experimental: (§1) Analysis of selectivity to cancer cells. The cells were seeded to white frame and clear bottom 96-well plates (Perkin Elmer) at a density of 10,000 cells/well for the human malignant melanoma A-375 cell line (ATCC CRL-1619) and 7500 cells/well for the human skin fibroblast Hs27 cell line (ATCC CRL-1634). The cells were grown at 37 °C, 5% CO2 until they reached 70–80% confluence (approximately 24 h). Stock solutions of test compounds and a positive control (camptothecin, Sigma-Aldrich, St. Louis, MO, USA) were prepared in DMSO and diluted into the assay medium (growth medium with 5% FBS) to the final concentration. Final DMSO concentration was 0.5% in all samples. The culture medium was removed from the plate and compounds added, 200 µL/well. After a 48-h incubation, the amount of ATP, which is directly proportional to the number of viable cells present in culture, was quantified using CellTiter-Glo® Luminescent Cell Viability kit (Promega, Madison, WI, USA), according to manufacturer’s instructions. Origin Graphing and Analysis, version 9.55 (OriginLab, Northampton, MA, USA), was used for determination of CC50 values. The cancer cell selectivity index was calculated as a ratio of CC50 values between Hs27 fibroblasts and A-375 melanoma cells. Standard deviation of selectivity indices was calculated using Equation (1) (1) σ(x¯/y¯)=(σ(x)/x¯)^2+(σ(y)/y¯)^2

[2] = Cytotoxicity in Hs27 normal skin fibroblasts (CellTiter-Glo ATP viability); format: cell-based; details: human, 48-h incubation, mean (SD) of 2–3 independent experiments in triplicate
Experimental: as §1

[3] = A-375, 48 h, read-out: Primary Test Results (Cytotoxicity % at 50 µM in A-375 Cells), 50 µM, A-375 cells, 48-h incubation, single experiment with three technical replicates
[4] = read-out: CC50 (µM) in Hs27 Cells

Row | Compound | cytotoxicity at 50 µM ([1]; 50 µM, A-375 cells, 48-h incubation, single experiment with three technical replicates, read-out: Primary Test Results (Cytotoxicity % at 50 µM in A-375 Cells)) | CC50 ([1]; A-375 cells, 48-h incubation, mean (SD) of 2–3 independent experiments in triplicate) | Selectivity Index (SI) [1] | CC50 at 48 h ([2]; Hs27 skin fibroblast cells) | CC50 ([1]; A-375, 48 h) | cytotoxicity at 50 µM [1, 3] | CC50 at 48 h [2, 4]
1 | CNCCCOc1c(Br)cc(CCNC(=O)/C(Cc2cc(Br)c(OC)c(Br)c2)=N/O)cc1Br [Purpurealidin I 3, Purpurealidin I, reference compound] | 98.9% | 3.7 µM | 1.3 (0.1) | 4.7 µM |  |  | 
2 | O=C1C=CC2(C=C1)CC(C(=O)N1CCC(O)CC1)=NO2 [Compound 16, 3-(4-Hydroxypiperidine-1-carbonyl)-1-oxa-2-azaspiro[4.5]deca-2,6,9-trien-8-one] |  |  | 1.5 (0.2) |  | 4.9 µM | 97.1% | 7.4 µM
3 | O=C(Nc1ccc(C(F)(F)F)nc1)C1=NOC2(C=C(Br)C(=O)C(Br)=C2)C1 [Compound 31, 7,9-Dibromo-8-oxo-N-[6-(trifluoromethyl)pyridin-3-yl]-1-oxa-2-azaspiro[4.5] deca-2,6,9-triene-3-carboxamide] |  |  | 0.4 (0.1) |  | 5.3 µM | 98.6% | 2.1 µM
4 | O=C1C=CC2(C=C1)CC(C(=O)N1CCOCC1)=NO2 [Compound 15, 3-(Morpholine-4-carbonyl)-1-oxa-2-azaspiro[4.5]deca-2,6,9-trien-8-one] |  |  | 0.7 (0.2) |  | 3.8 µM | 96.1% | 2.5 µM
5 | O=C1C=CC2(C=C1)CC(C(=O)NCCc1ccccn1)=NO2 [Compound 32, 8-Oxo-N-[2-(pyridin-2-yl)ethyl]-1-oxa-2-azaspiro[4.5]deca-2,6,9-triene-3-carboxamide] |  |  | 1.5 (0.9) |  | 1.5 µM | 97.5% | 2.2 µM
6 | O=C(NCCc1ccccn1)C1=NOC2(C=C(Br)C(=O)C(Br)=C2)C1 [Compound 33, 7,9-Dibromo-8-oxo-N-[2-(pyridin-2-yl)ethyl]-1-oxa-2-azaspiro[4.5]deca-2,6,9-triene-3-carboxamide] |  |  | 1.9 (0.6) |  | 3.6 µM | 98.9% | 6.6 µM
7 | O=C1C=CC2(C=C1)CC(C(=O)Nc1cccnc1)=NO2 [Compound 26, 8-Oxo-N-(pyridin-3-yl)-1-oxa-2-azaspiro[4.5]deca-2,6,9-triene-3-carboxamide] |  |  | 1.0 (0.8) |  | 2 µM | 99.2% | 1.9 µM
8 | O=C1C=CC2(C=C1)CC(C(=O)NCCc1c[nH]c3ccccc13)=NO2 [Compound 22, N-[2-(1H-Indol-3-yl)ethyl]-8-oxo-1-oxa-2-azaspiro[4.5]deca-2,6,9-triene-3-carboxamide] |  |  | 1.0 (0.3) |  | 0.7 µM | 99.8% | 0.7 µM
9 | COc1ccc(NC(=O)C2=NOC3(C=C(Br)C(=O)C(Br)=C3)C2)cc1Cl [Compound 21, 7,9-Dibromo-N-(3-chloro-4-methoxyphenyl)-8-oxo-1-oxa-2-azaspiro[4.5]deca-2,6,9-triene-3-carboxamide] |  |  | 2.2 (0.3) |  | 2.3 µM | 101% | 5 µM
10 | O=C1C=CC2(C=C1)CC(C(=O)NNC(=O)c1ccccn1)=NO2 [Compound 37, 8-Oxo-N’-picolinoyl-1-oxa-2-azaspiro[4.5]deca-2,6,9-triene-3-carbohydrazide] |  |  | 2.4 (0.3) |  | 2.5 µM | 89.3% | 6 µM
11 | O=C(NNC(=O)c1ccccn1)C1=NOC2(C=C(Br)C(=O)C(Br)=C2)C1 [Compound 38, 7,9-Dibromo-8-oxo-N’-picolinoyl-1-oxa-2-azaspiro[4.5]deca-2,6,9-triene-3-carbohydrazide] |  |  | 0.5 (0.5) |  | 12.3 µM | 93.5% | 6.4 µM
12 | CN(C)C(=O)C1=NOC2(C=C(Br)C(=O)C(Br)=C2)C1 [Compound 13, 7,9-Dibromo-N,N-dimethyl-8-oxo-1-oxa-2-azaspiro[4.5]deca-2,6,9-triene-3-carboxamide] |  |  |  |  | 3.7 µM | 99.8% | 7.2 µM
